Measurements from ChEMBL document CHEMBL1201862, “PubChem BioAssay data set” (2004).
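Growth conditions: 96-well plates. Treatment: test compound, 48 hours, 5 concentrations. Analysis: linear interpolation between bracketing concentrations; unreached endpoints set to highest concentration. GI50 marks 50% less growth.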 Calls of active or inactive are those of the source. Cut-off read from the data, not from the text of the source: active = GI50 up to about 1.1 µM and inactive = higher.

Key:
Test in all cases: DTP human tumour cell line panel, 48 h
NCI/ADR-RES = test system: NCI/ADR-RES
OVCAR-8 = test system: OVCAR-8
T47D = test system: T47D
ACHN = test system: ACHN
HCT-116 = test system: HCT-116
KM12 = test system: KM12
COLO 205 = test system: COLO 205
PC-3 = test system: PC-3
Malme-3M = test system: Malme-3M
NCI-H522 = test system: NCI-H522
OVCAR-3 = test system: OVCAR-3
UO-31 = test system: UO-31
LOX IMVI = test system: LOX IMVI
RPMI-8226 = test system: RPMI-8226
CCRF-CEM = test system: CCRF-CEM
MDA-MB-435 = test system: MDA-MB-435
MDA-MB-231 = test system: MDA-MB-231
NCI-H23 = test system: NCI-H23
SF-268 = test system: SF-268
CAKI-1 = test system: CAKI-1

Compound	GI50 (NCI/ADR-RES)	GI50 (OVCAR-8)	GI50 (T47D)	GI50 (ACHN)	GI50 (HCT-116)	GI50 (KM12)	GI50 (COLO 205)	GI50 (PC-3)	GI50 (Malme-3M)	GI50 (NCI-H522)	GI50 (OVCAR-3)	GI50 (UO-31)	GI50 (LOX IMVI)	GI50 (RPMI-8226)	GI50 (CCRF-CEM)	GI50 (MDA-MB-435)	GI50 (MDA-MB-231)	GI50 (NCI-H23)	GI50 (SF-268)	GI50 (CAKI-1)
COc1ccc(-n2sc3ncc(C)cc3c2=O)cc1	26.5 µM (inactive)	18.2 µM (inactive)	17.5 µM (inactive)	18.3 µM (inactive)	18.3 µM (inactive)	16.1 µM (inactive)	16.1 µM (inactive)	15.6 µM (inactive)	18.5 µM (inactive)	20.6 µM (inactive)	16.9 µM (inactive)	17.6 µM (inactive)	> 10 µM (inactive)	26.2 µM (inactive)	10.6 µM (inactive)	18.8 µM (inactive)	17 µM (inactive)	26.2 µM (inactive)	20.9 µM (inactive)	
O=C(CCc1ccc(O)c(O)c1)NCCc1cc(O)cc(O)c1	> 100 µM (inactive)	> 100 µM (inactive)	> 100 µM (inactive)	> 100 µM (inactive)	> 100 µM (inactive)	> 100 µM (inactive)	> 100 µM (inactive)	> 100 µM (inactive)		71 µM (inactive)	> 100 µM (inactive)	63.5 µM (inactive)	46 µM (inactive)	> 100 µM (inactive)	29.2 µM (inactive)	24.8 µM (inactive)	> 100 µM (inactive)	> 100 µM (inactive)	> 100 µM (inactive)	> 100 µM (inactive)
CC(=O)c1cccc(Nc2nc3ccccc3c3[nH]c4ccccc4c23)c1	4.05 µM (inactive)	3.86 µM (inactive)	3.48 µM (inactive)	3.63 µM (inactive)	4.28 µM (inactive)	4.66 µM (inactive)	2.23 µM (inactive)	4.65 µM (inactive)	3.61 µM (inactive)	2.57 µM (inactive)	2.48 µM (inactive)	3.33 µM (inactive)		3.03 µM (inactive)	5.74 µM (inactive)	4.48 µM (inactive)	3.19 µM (inactive)	9.38 µM (inactive)	3.67 µM (inactive)	3.8 µM (inactive)
COc1ccc(-c2cc(-c3cc(C)cc(Br)c3O)no2)cc1	7.67 µM (inactive)	4.31 µM (inactive)	5.38 µM (inactive)	8.36 µM (inactive)	10.3 µM (inactive)	22.2 µM (inactive)	> 10 µM (inactive)	4.44 µM (inactive)		3.98 µM (inactive)	6.38 µM (inactive)	12.5 µM (inactive)	6.03 µM (inactive)	11.2 µM (inactive)	> 10 µM (inactive)	15.9 µM (inactive)	12.4 µM (inactive)	14.7 µM (inactive)	4.17 µM (inactive)	6.98 µM (inactive)
COc1cc2c(cc1OC)C(=O)/C(=C/c1cc(OC)c(OC)c(OC)c1)C2	23.7 µM (inactive)	> 100 µM (inactive)	90.2 µM (inactive)			> 100 µM (inactive)	> 100 µM (inactive)	> 100 µM (inactive)	> 100 µM (inactive)	14.6 µM (inactive)	> 100 µM (inactive)	> 100 µM (inactive)		> 100 µM (inactive)	> 100 µM (inactive)	> 100 µM (inactive)	66.7 µM (inactive)	> 100 µM (inactive)		> 100 µM (inactive)
COC(=O)/C=C/c1ccc2nncnc2c1.COC(=O)/C=C\c1ccc2nncnc2c1	62.4 µM (inactive)	57.9 µM (inactive)	98.4 µM (inactive)	> 100 µM (inactive)	81.5 µM (inactive)	31.6 µM (inactive)	21.6 µM (inactive)	34.7 µM (inactive)		28.5 µM (inactive)	32.7 µM (inactive)	56.1 µM (inactive)	33.9 µM (inactive)	> 100 µM (inactive)	> 100 µM (inactive)	17.9 µM (inactive)	> 100 µM (inactive)	10 µM (inactive)	75.7 µM (inactive)	> 100 µM (inactive)
O=C(c1cc2ccccc2cc1O)N1CCCCC1	23.8 µM (inactive)	20.8 µM (inactive)	37.6 µM (inactive)	38.2 µM (inactive)	39.6 µM (inactive)	33.6 µM (inactive)	32.7 µM (inactive)	29.8 µM (inactive)				40.5 µM (inactive)	55.1 µM (inactive)	17.6 µM (inactive)	14.5 µM (inactive)	33.3 µM (inactive)	68.2 µM (inactive)		36.1 µM (inactive)	50.7 µM (inactive)
CC(=O)O[C@H]1CC[C@H]2[C@@H]3CCC4=CC(=O)C=C[C@]4(O)[C@H]3CC[C@]12C	12 µM (inactive)	19.1 µM (inactive)	13.3 µM (inactive)	> 84.5 µM (inactive)	21.9 µM (inactive)	14.9 µM (inactive)	22.4 µM (inactive)	30.1 µM (inactive)			42.1 µM (inactive)	55.5 µM (inactive)	12.9 µM (inactive)	3.47 µM (inactive)	13.5 µM (inactive)	16.4 µM (inactive)	> 82.8 µM (inactive)	9.91 µM (inactive)		> 55.1 µM (inactive)
Cc1cc(S(=O)(=O)NC(=C(C#N)C#N)[n+]2ccc(N(C)C)cc2)c([S-])cc1Cl	> 100 µM (inactive)	> 100 µM (inactive)	> 100 µM (inactive)	> 100 µM (inactive)	> 100 µM (inactive)	> 100 µM (inactive)	> 100 µM (inactive)	> 100 µM (inactive)	> 100 µM (inactive)	42.3 µM (inactive)	> 100 µM (inactive)	> 100 µM (inactive)		> 100 µM (inactive)	> 100 µM (inactive)	> 100 µM (inactive)	> 100 µM (inactive)	> 100 µM (inactive)	> 100 µM (inactive)	> 100 µM (inactive)
CCOC(=O)C(=NN(C)c1ncccc1N)C(=O)OCC	53.3 µM (inactive)	38.3 µM (inactive)	25.9 µM (inactive)		26.4 µM (inactive)	> 100 µM (inactive)	14.4 µM (inactive)	62.5 µM (inactive)	29.1 µM (inactive)		30.7 µM (inactive)	38.8 µM (inactive)	18.3 µM (inactive)	30.3 µM (inactive)	37.5 µM (inactive)	19.3 µM (inactive)	25.6 µM (inactive)	45.5 µM (inactive)	> 100 µM (inactive)	33.3 µM (inactive)
C=C1C[C@@H]2O[C@H]3[C@H]4[C@@H](C[C@@H](C)[C@@H](OC(C)=O)[C@H]42)[C@@H](C)CO[C@@]3(C)[C@H](OC(=O)CCCCCCC)CC1=O	17.9 µM (inactive)	13.6 µM (inactive)	15.4 µM (inactive)	16 µM (inactive)	15.1 µM (inactive)	12.1 µM (inactive)	13.9 µM (inactive)	9.82 µM (inactive)		19.6 µM (inactive)	18.2 µM (inactive)	15.6 µM (inactive)	16.5 µM (inactive)	2.64 µM (inactive)	5.85 µM (inactive)	16.5 µM (inactive)	20.8 µM (inactive)	20.6 µM (inactive)	18.8 µM (inactive)	19.4 µM (inactive)
COc1ccc2c(c1)C1=NCCN(CCN(C)C)c3ccc([N+](=O)[O-])c(c31)N2	0.957 µM (active)	0.526 µM (active)	0.156 µM (active)	0.191 µM (active)	0.116 µM (active)	0.374 µM (active)		0.411 µM (active)	0.431 µM (active)		0.499 µM (active)	0.735 µM (active)	0.351 µM (active)	0.442 µM (active)	0.258 µM (active)	0.627 µM (active)	0.196 µM (active)	0.701 µM (active)	0.509 µM (active)	0.56 µM (active)
COc1ccc(CCNC(=O)Cc2ccccc2CCO)cc1OC	> 100 µM (inactive)	> 100 µM (inactive)	> 100 µM (inactive)	> 100 µM (inactive)	> 100 µM (inactive)	> 100 µM (inactive)	> 100 µM (inactive)	> 100 µM (inactive)		> 100 µM (inactive)	> 100 µM (inactive)	> 100 µM (inactive)		> 100 µM (inactive)	> 100 µM (inactive)	> 100 µM (inactive)	38.8 µM (inactive)	> 100 µM (inactive)	> 100 µM (inactive)	> 100 µM (inactive)
CC/C=C/C(CC)C/C(C)=C\[C@]1(CC)C[C@H](CC)[C@H](CC(=O)O)OO1 (stereo partly drawn)	0.453 µM (active)	1.09 µM (active)	1.34 µM (inactive)	0.265 µM (active)	0.41 µM (active)	0.0991 µM (active)	1.32 µM (inactive)	0.366 µM (active)		0.178 µM (active)	1.15 µM (inactive)	0.0157 µM (active)	0.0315 µM (active)	< 0.01 µM (active)	0.105 µM (active)	1.46 µM (inactive)	1.76 µM (inactive)	1.61 µM (inactive)	1.39 µM (inactive)	0.259 µM (active)
Cc1nc2c(cc1C(=O)N/N=C/c1ccc([N+](=O)[O-])cc1)c(=O)n(C)c(=O)n2C	> 100 µM (inactive)	32.4 µM (inactive)	80.4 µM (inactive)	> 100 µM (inactive)	56.4 µM (inactive)	> 100 µM (inactive)	> 100 µM (inactive)	> 100 µM (inactive)	> 100 µM (inactive)		> 100 µM (inactive)	> 100 µM (inactive)		96.6 µM (inactive)	> 100 µM (inactive)	> 100 µM (inactive)	22.1 µM (inactive)	41.8 µM (inactive)	25.4 µM (inactive)	51.8 µM (inactive)
